Tested on: diarrhea-predominant IBS subjects
Assay type: in vivo, human
Settings: TEAE incidence, 2 mg, Safety Population
Method: The study was performed in approximately 150 study centers. Approximately 1600 eligible subjects were to be given cilansetron 2 mg TID. At Visit 1, pre-treatment assessments were conducted. […] Subjects were to return to the study site one month later for Visit 3 (Day 31) for their first interim assessment. […] All subjects who discontinued from the study were to have the same post-study assessments required at Visit 7 performed at their early termination visit. […]
Stool specimens were analyzed at every visit for occult blood. An independent GERB had been established to provide advice on GI AEs during the course of the study.
Adverse events were assessed at Baseline, at each clinic visit, and at the end of the study (Month 12 or the early termination visit). All AEs, which occurred during the study were followed up in accordance with good medical practice until resolved or judged no longer clinically significant, or if a condition was chronic, until fully characterized. Adverse events could occur in the specified follow-up period and, regardless of the interval since the last administration of the study medication, were treated in the same manner as an AE which occurred during the treatment with study medication. Each AE was evaluated for duration, severity, seriousness, and causal relationship to the investigational drug. The action taken and the outcome were also recorded.
Specifically, subjects who were lost to follow-up and had no post-Baseline contact with the site were excluded from the Safety population. The subjects who discontinued from the study due to lost to follow-up were identified based on the information collected on the study termination CRF page.
After the pretreatment assessment at Visit 1 (Days […] to −3), subjects were to return to the study site for a Baseline assessment and start the treatment at Visit 2 (Day 1).
For the by time-interval analyses of disposition, prevalence of AEs, and of markedly abnormal and predefined changes in laboratory values, vital signs, and ECGs, the following interval windows were used:
Adverse events that were already present prior to the first dose of cilansetron study medication but increased in severity afterwards were considered as treatment-emergent.
The 5% cutoff point was based on the incidence within higher level terms.
Subjects were counted at most once for each primary system organ class and preferred term. Serious AEs that resolved prior to receiving study medication or occurred more than 30 days after the last dose of study medication were not included in the incidence tables. A listing of all SAEs is presented; SAEs with onset prior to receiving study medication or more than 30 days after discontinuation of study medication were flagged. The listing presents lower level term and preferred term of the SAE, severity, action taken, outcome, and relationship of the SAE, start and stop date of the SAE, study day of onset of the SAE, age, race, and sex.

## Cc1nccn1C[C@H]1CCc2c(c3cccc4c3n2CCC4)C1=O [cilansetron, (R)-(−)-4,5,6,8,9,10-hexahydro-10-[(2-methyl-1H-imidazol-1-yl)methyl]-11H-pyrido-[3,2,1-jk]-carbazol-11-one]
HLT
  Limb Injuries NEC (Incl Traumatic Amputation): 4 (<1%) n (%)
  Lower Limb Fractures and Dislocations: 4 (<1%) n (%)
  Menopausal Effects NEC*: 2 (<1%) n (%)
  Menopausal Effects on the Genitourinary Tract*: 1 (<1%) n (%)
  Menstruation and Uterine Bleeding NEC*: 3 (<1%) n (%)
  Menstruation with Decreased Bleeding*: 4 (<1%) n (%)
  Menstruation with Increased Bleeding*: 2 (<1%) n (%)
  Mental Disorders NEC: 1 (<1%) n (%)
  Metabolic Bone Disorders: 4 (<1%) n (%)
  Mood Alterations with Depressive Symptoms: 1 (<1%) n (%)
  Muscle Pains: 12 (<1%) n (%)
  Muscle Related Signs and Symptoms NEC: 8 (<1%) n (%)
  Muscle, Tendon and Ligament Injuries: 14 (<1%) n (%)
  Myocardial Disorders NEC: 2 (<1%) n (%)
  Nasal Congestion and Inflammations: 10 (<1%) n (%)
  Nasal Disorders NEC: 5 (<1%) n (%)
  Non-Site Specific Injuries NEC: 10 (<1%) n (%)
  Non-Site Specific Procedural Complications: 5 (<1%) n (%)
  Oedema NEC: 1 (<1%) n (%)
  Osteoarthropathies: 4 (<1%) n (%)
  Ovarian and Fallopian Tube Cysts and Neoplasms*: 2 (<1%) n (%)
  Pain and Discomfort NEC: 20 (1%) n (%)
  Panic Disorders: 4 (<1%) n (%)
  Papulosquamous Conditions: 6 (<1%) n (%)
  Paranasal Sinus Disorders (Excl Infections and Neoplasms): 6 (<1%) n (%)
  Parasomnias: 2 (<1%) n (%)
  Pelvic Prolapse*: 2 (<1%) n (%)
  Photosensitivity Conditions: 1 (<1%) n (%)
  Potassium Imbalance: 4 (<1%) n (%)
  Prostatic signs, Symptoms and Disorders NEC*: 4 (<1%) n (%)
  Pruritus NEC: 14 (<1%) n (%)
  Purine Metabolism Disorders NEC: 1 (<1%) n (%)
  Rashes, Eruptions and Exanthems NEC: 13 (<1%) n (%)
  Rate and Rhythm Disorders NEC: 8 (<1%) n (%)
  Renal Lithiasis: 2 (<1%) n (%)
  Renal Neoplasms: 1 (<1%) n (%)
  Reproductive Tract Disorders NEC (Excl Neoplasms): 1 (<1%) n (%)
  Reproductive Tract Signs and Symptoms NEC: 2 (<1%) n (%)
  Respiratory Tract Disorders NEC: 1 (<1%) n (%)
  Rheumatoid Arthropathies: 2 (<1%) n (%)
  Rosaceas: 1 (<1%) n (%)
  Scalar Conditions: 1 (<1%) n (%)
  Sebaceous Gland Disorders: 1 (<1%) n (%)
  Sexual Desire Disorders: 2 (<1%) n (%)
  Site Specific Injuries NEC: 17 (1%) n (%)
  Skin Injuries and Mechanical Dermatoses: 3 (<1%) n (%)
  Skin Neoplasms Benign: 1 (<1%) n (%)
  Skin Preneoplastic Conditions NEC: 1 (<1%) n (%)
  Skin and Subcutaneous Tissue Ulcerations: 1 (<1%) n (%)
  Sleep Disorders NEC: 2 (<1%) n (%)
  Sodium Imbalance: 1 (<1%) n (%)
  Soft Tissue Disorders NEC: 6 (<1%) n (%)
  Spondyloarthropathies: 2 (<1%) n (%)
  Structural and Obstructive Urethral Disorders (Excl Congenital): 1 (<1%) n (%)
  Supraventricular Arrhythmias: 18 (1%) n (%)
  Tendon Disorders: 3 (<1%) n (%)
  Thermal Burns: 1 (<1%) n (%)
  Thoracic Cage Fractures and Dislocations: 2 (<1%) n (%)
  Total Fluid Volume Increased: 1 (<1%) n (%)
  Upper Limb Fractures and Dislocations: 7 (<1%) n (%)
  Upper Respiratory Tract Signs and Symptoms: 36 (2%) n (%)
  Urinary Abnormalities: 8 (<1%) n (%)
  Urinary Tract Lithiasis (Excl Renal): 2 (<1%) n (%)
  Urinary Tract Signs and Symptoms NEC: 8 (<1%) n (%)
  Urticarias: 4 (<1%) n (%)
  Ventricular Arrhythmias and Cardiac Arrest: 3 (<1%) n (%)
  Water Soluble Vitamin Deficiencies: 2 (<1%) n (%)
HLT (skin SOC)
  Connective Tissue Disorders: 1 (<1%) n (%)
PT
  Abrasion NOS: 1 (<1%) n (%)
  Acne Aggravated: 1 (<1%) n (%)
  Acne NOS: 1 (<1%) n (%)
  Acute Myocardial Infarction: 2 (<1%) n (%)
  Affect Lability: 1 (<1%) n (%)
  Alopecia: 1 (<1%) n (%)
  Alopecia Areata: 1 (<1%) n (%)
  Amenorrhoea NOS*: 2 (<1%) n (%)
  Anal Injury: 1 (<1%) n (%)
  Angina Pectoris: 2 (<1%) n (%)
  Animal Bite: 2 (<1%) n (%)
  Ankle Fracture: 1 (<1%) n (%)
  Anorexia: 11 (<1%) n (%)
  Anxiety: 12 (<1%) n (%)
  Anxiety Aggravated: 1 (<1%) n (%)
  Anxiety Disorder: 1 (<1%) n (%)
  Appetite Decreased NOS: 2 (<1%) n (%)
  Appetite Increased NOS: 2 (<1%) n (%)
  Arthralgia: 29 (2%) n (%)
  Arthralgia Aggravated: 1 (<1%) n (%)
  Arthritis NOS: 1 (<1%) n (%)
  Arthropod Sting: 2 (<1%) n (%)
  Asthenia: 2 (<1%) n (%)
  Asthma Aggravated: 2 (<1%) n (%)
  Asthma NOS: 6 (<1%) n (%)
  Atrial Fibrillation: 2 (<1%) n (%)
  Atrial Fibrillation Aggravated: 1 (<1%) n (%)
  Atrial Flutter: 1 (<1%) n (%)
  Atrial Hypertrophy: 1 (<1%) n (%)
  Atrioventricular Block NOS: 1 (<1%) n (%)
  Axillary Pain: 1 (<1%) n (%)
  Back Injury NOS: 3 (<1%) n (%)
  Back Pain Aggravated: 2 (<1%) n (%)
  Benign Prostatic Hyperplasia*: 3 (<1%) n (%)
  Bloody Discharge: 1 (<1%) n (%)
  Bradycardia NOS: 2 (<1%) n (%)
  Breast Cyst*: 2 (<1%) n (%)
  Breast Engorgement*: 1 (<1%) n (%)
  Breast Pain*: 2 (<1%) n (%)
  Breast Tenderness*: 1 (<1%) n (%)
  Bundle Branch Block Right: 3 (<1%) n (%)
  Bursitis: 1 (<1%) n (%)
  Calculus Renal NOS: 2 (<1%) n (%)
  Calculus Ureteric: 2 (<1%) n (%)
  Catarrh: 2 (<1%) n (%)
